One assay addresses BTK (Homo sapiens (Human), UniProt Q06187). In words: BTK enzyme activity, IMAP assay. In kind it is biochemical. The note with it: 60 min pre-incubation; 5 μM ATP. As for the experimental part:
BTK enzyme activity is measured using the IMAP (immobilized metal ion affinity-based fluorescence polarization) assay as outlined below.
BTK enzyme (His-BTK (Millipore catalog #14-552)), is diluted to 0.4 U/mL in KR buffer (10 mM Tris-HCl, 10 mM MgCl2, 0.01% Tween-20, 0.05% NaN3, 1 mM DTT, 2 mM MnCl2, pH 7.2).
(§1) Serial dilutions log 10 from 2 mM to 63.2 nM of test compounds are made in 100% DMSO. The dilutions in DMSO are then diluted 50-fold in KR-buffer. Final compound concentration range in the assay ranged from 10 μM to 0.316 nM.
The assay is performed as follows: 5 μL/well of test compound in KR buffer (final DMSO concentration in the assay is 1%) is mixed with 5 µl/well of 0.4 U/mL BTK enzyme (final concentration in the assay is 0.1 U/mL). Test compounds and BTK enzyme are pre-incubated 60 minutes at room temperature, before adding 5 μL/well of 200 nM Fluorescin labeled substrate peptide (Blk/Lyntide substrate, e.g. #R7188/#R7233, Molecular Devices) in KR-buffer. Final peptide substrate concentration in assay is 50 nM. […] Following incubation for 2 hours at room temperature the enzyme reaction is stopped by adding 40 μL/well IMAP Progressive Binding Solution (according to suppliers (Molecular Devices) protocol using 75% 1× buffer A and 25% 1× buffer B with 1:600 Progressive Binding Solution). After 60 min incubation at room temperature in the dark the FP signal is read. Fluorescence at 535 nm is measured using parallel and perpendicular filters to determine differences in rotation due to binding of the phosphorylated substrate peptide to the beads. Values are calculated as percentage of the difference in readout (ΔmPi) of the controls with and without ATP. IC50 values are determined by curve fitting of the experimental results using Activity Base.

A further assay addresses EGFR WT (Homo sapiens (Human), UniProt P00533). Put plainly: EGFR enzyme activity, IMAP assay. In kind it is biochemical. Conditions: 60 min pre-incubation; 2 μM ATP. As for the experimental part: EGFR enzyme activity is measured using the IMAP (immobilized metal ion affinity-based fluorescence polarization) assay as outlined below.
EGFR enzyme (Invitrogen catalog #PR7295B), is diluted to 2.5 μg/mL in KR buffer (10 mM Tris-HCl, 10 mM MgCl2, 0.01% Tween-20, 0.1% NaN3, 1 mM DTT, 2 mM MnCl2, pH 7.5).
Final peptide substrate concentration in assay is 50 nM. […] Following incubation for 60 min at room temperature in the dark the enzyme reaction is stopped by adding 40 μL/well IMAP Progressive Binding Solution (according to suppliers (Molecular Devices) protocol using 20% 1× buffer A and 80% 1× buffer B with 600× diluted beads). After 60 min incubation at room temperature in the dark the FP signal is read. […] Values are calculated as percentage of the difference in readout (ΔmPi) of the controls with and without ATP. IC50 values are determined by curve fitting of the experimental results using GraphPad Prism6.

The next assay concerns the target Txk (Homo sapiens (Human), UniProt P42681). In words: TXK enzyme activity, IMAP assay. In kind it is biochemical. Conditions: 60 min pre-incubation; 1 μM ATP. As for the experimental part: TXK enzyme activity is measured using the IMAP (immobilized metal ion affinity-based fluorescence polarization) assay as outlined below.
TXK enzyme (Millipore #14-761), is diluted to 2.5 U/mL in KR buffer (10 mM Tris-HCl, 10 mM MgCl2, 0.01% Tween-20, 0.1% NaN3, 1 mM DTT, 2 mM MnCl2, pH 7.5).
as §1
The assay is performed as follows: 5 μL/well of test compound in KR buffer (final DMSO concentration in the assay is 1%) is mixed with 5 μL/well of 2.5 U/mL TXK enzyme (final concentration in the assay is 0.625 U/mL (4.4 nM)). Test compounds and TXK enzyme are pre-incubated 60 minutes at room temperature, before adding 5 μL/well of 200 nM Fluorescin labeled substrate peptide (Blk/Lyntide substrate #R7188, Molecular Devices) in KR-buffer. Final peptide substrate concentration in assay is 50 nM. […] Following incubation for 2 hours at room temperature the enzyme reaction is stopped by adding 40 μL/well IMAP Progressive Binding Solution (according to suppliers (Molecular Devices) protocol using 60% 1× buffer A and 40% 1× buffer B with 800× diluted beads (Progressive Binding System, Molecular Devices). After 60 min incubation at room temperature in the dark the FP signal is read. Fluorescence at 535 nm is measured using parallel and perpendicular filters to determine differences in rotation due to binding of the phosphorylated substrate peptide to the beads. Values are calculated as percentage of the difference in readout (ΔmPi) of the controls with and without ATP. IC50 values are determined by curve fitting of the experimental results using Activity Base.

The target of a further assay is ITK (Homo sapiens (Human), UniProt Q08881). Put plainly: ITK enzyme activity, IMAP assay. It counts as biochemical. The note with it: 60 min pre-incubation; 5 μM ATP. The protocol:
ITK enzyme activity is measured using the IMAP (immobilized metal ion affinity-based fluorescence polarization) assay as outlined below.
ITK enzyme (Millipore #14-660M) is diluted to 0.2 U/mL in KR buffer (10 mM Tris-HCl, 10 mM MgCl2, 0.01% Tween-20, 0.1% NaN3, 1 mM DTT, 2 mM MnCl2, pH 7.5)
(§2) The dilutions in DMSO are then diluted 50-fold in KR-buffer.
Test compounds and ITK enzyme are pre-incubated 60 minutes at room temperature, before adding 5 μL/well of 200 nM Fluorescin labeled substrate peptide (Blk/Lyntide substrate #R8124, Molecular Devices) in KR-buffer. Final peptide substrate concentration in assay is 50 nM. […] IC50 values are determined by curve fitting of the experimental results using Activity Base.

For another assay, the target named is ErbB2 (Homo sapiens (Human), UniProt P04626). Put plainly: ErbB2 Z-LYTE assay (Life Technologies). In kind it is biochemical. Conditions: Z-LYTE assay performed at Life Technologies.
The target of a further assay is ErbB4 (Homo sapiens (Human), UniProt Q15303). In words: ErbB4 Z-LYTE assay (Life Technologies). The note with it: Z-LYTE assay performed at Life Technologies. It counts as biochemical.
For the next assay, the target named is Blk (Homo sapiens (Human), UniProt P51451). Put plainly: Blk Z-LYTE assay (Life Technologies). In kind it is biochemical. The note with it: Z-LYTE assay performed at Life Technologies.
In the next assay the target is Bmx (Homo sapiens (Human), UniProt P51813). Put plainly: BMX enzyme activity, IMAP assay. In kind it is biochemical. The note with it: 60 min pre-incubation; 5 μM ATP. The protocol: BMX enzyme activity is measured using the IMAP (immobilized metal ion affinity-based fluorescence polarization) assay as outlined below.
as §2
Test compounds and BMX enzyme are pre-incubated 60 minutes at room temperature, before adding 5 μL/well of 200 nM Fluorescin labeled substrate peptide (Blk/Lyntide substrate #R7188, Molecular Devices) in KR-buffer. Final peptide substrate concentration in assay is 50 nM. […] IC50 values are determined by curve fitting of the experimental results using Activity Base.

For the next assay, the target named is Jak3 (Homo sapiens (Human), UniProt P52333). Put plainly: Jak3 Z-LYTE assay (Life Technologies). In kind it is biochemical. The note with it: Z-LYTE assay performed at Life Technologies.
The subject of assay [1] is CD69 in CD19+ B cells of anti-IgM stimulated PBMCs. Put plainly: Human peripheral blood mononuclear cell (PBMC) CD69 assay. It counts as cell-based. The note with it: Homo sapiens, PBMC, 2 h compound, then anti-IgM 18 hours. The protocol:
Example 44—Human Peripheral Blood Mononuclear Cell (PBMC) CD69 Assay
Whole blood was collected in heparin-coated Vacutainer tubes (BD Biosciences, San Jose, Calif.) and used for isolation of PBMCs using Ficoll-Hypaque (Pharmacia, Uppsala, Sweden). Isolated PBMCs were cryopreserved in 90% FCS/10% DMSO until later use.
Cells from cryogenic storage were thawed in a 37° C. water bath, diluted with RPMI/1% FCS, washed 2 times, and then plated at 1×10^5 cells per well in RPMI/10% FCS.
Serial dilutions log 10 from 10 mM to 316 nM of test compounds are made in 100% DMSO, followed by a 100-fold dilution into RPMI/1% FCS. For each well, 10 μL was then transferred to the deep well plate containing 90 μL of PBMC cells. Final compound concentration range in the assay ranged from 10 μM to 0.316 nM, with a final DMSO concentration of 0.1%. PBMCs are then incubated for 2 h at 37° C. in presence or absence of test compounds, prior to stimulation with goat F(ab′)2 anti-IgM (Southern Biotech, #2022-14, final concentration in assay 5 μg/mL) for 18 hours.
Following stimulation with anti-IgM, PBMCs were incubated on ice for 30 min with anti-CD69-FITC, anti-CD19-BV421 (BD Biosciences #555530 and #562440, respectively) and 7AAD (Life Technologies #A1310). Flow cytometry was performed and fluorescence values were obtained from the CD69-FITC channel in CD19+ gated life B cells. ECso values are determined by curve fitting of the experimental results using GraphPad Prism.

Sequence of ITK (Q08881 whole entry): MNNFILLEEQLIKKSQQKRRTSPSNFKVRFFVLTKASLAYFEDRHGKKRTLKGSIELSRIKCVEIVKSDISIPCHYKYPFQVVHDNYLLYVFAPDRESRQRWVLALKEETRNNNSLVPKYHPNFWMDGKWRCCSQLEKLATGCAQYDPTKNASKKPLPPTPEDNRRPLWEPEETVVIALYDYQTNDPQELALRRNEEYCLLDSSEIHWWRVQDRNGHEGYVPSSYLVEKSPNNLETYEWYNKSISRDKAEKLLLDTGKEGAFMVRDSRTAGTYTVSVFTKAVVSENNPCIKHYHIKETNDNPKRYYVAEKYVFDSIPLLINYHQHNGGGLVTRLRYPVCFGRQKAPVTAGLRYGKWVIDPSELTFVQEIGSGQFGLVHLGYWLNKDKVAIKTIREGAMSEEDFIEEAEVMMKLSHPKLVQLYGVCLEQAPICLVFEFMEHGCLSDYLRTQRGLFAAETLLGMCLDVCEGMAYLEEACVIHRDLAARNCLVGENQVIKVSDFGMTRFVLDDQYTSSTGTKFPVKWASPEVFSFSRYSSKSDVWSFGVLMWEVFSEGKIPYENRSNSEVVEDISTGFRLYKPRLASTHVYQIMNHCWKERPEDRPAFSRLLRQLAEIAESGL
Sequence of BTK (Q06187 whole entry): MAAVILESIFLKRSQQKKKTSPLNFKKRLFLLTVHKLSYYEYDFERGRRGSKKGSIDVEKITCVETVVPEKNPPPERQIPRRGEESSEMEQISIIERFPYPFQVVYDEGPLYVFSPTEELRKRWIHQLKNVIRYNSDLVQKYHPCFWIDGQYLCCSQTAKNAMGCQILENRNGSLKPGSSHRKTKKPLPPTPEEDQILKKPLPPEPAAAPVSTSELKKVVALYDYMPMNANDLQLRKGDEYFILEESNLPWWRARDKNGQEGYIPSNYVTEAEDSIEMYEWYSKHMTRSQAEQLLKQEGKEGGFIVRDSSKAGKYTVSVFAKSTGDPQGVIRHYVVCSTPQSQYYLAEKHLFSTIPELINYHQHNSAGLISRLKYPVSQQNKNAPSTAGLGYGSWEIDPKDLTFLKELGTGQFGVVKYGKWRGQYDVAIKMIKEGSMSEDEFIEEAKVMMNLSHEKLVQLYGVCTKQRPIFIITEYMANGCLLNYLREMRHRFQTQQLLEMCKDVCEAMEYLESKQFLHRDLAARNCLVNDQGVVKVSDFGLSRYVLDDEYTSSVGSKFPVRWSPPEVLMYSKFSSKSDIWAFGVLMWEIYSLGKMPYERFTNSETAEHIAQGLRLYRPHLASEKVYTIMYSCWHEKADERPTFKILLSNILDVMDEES
Sequence of Txk (P42681 whole entry): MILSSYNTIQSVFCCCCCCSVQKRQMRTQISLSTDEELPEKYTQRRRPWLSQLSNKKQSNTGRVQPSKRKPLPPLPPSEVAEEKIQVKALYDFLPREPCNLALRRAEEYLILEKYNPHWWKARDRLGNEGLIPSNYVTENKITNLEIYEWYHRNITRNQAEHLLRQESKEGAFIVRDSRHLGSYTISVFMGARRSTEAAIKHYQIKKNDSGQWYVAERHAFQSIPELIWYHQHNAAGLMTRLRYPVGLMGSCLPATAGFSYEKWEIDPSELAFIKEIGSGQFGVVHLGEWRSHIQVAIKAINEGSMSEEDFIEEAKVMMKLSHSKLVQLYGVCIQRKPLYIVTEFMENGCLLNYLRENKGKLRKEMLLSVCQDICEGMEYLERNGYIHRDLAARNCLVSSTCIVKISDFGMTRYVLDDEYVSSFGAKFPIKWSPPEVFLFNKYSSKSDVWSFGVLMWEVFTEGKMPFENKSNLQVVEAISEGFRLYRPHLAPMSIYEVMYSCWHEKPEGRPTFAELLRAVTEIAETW
Sequence of EGFR WT (P00533 25-1210): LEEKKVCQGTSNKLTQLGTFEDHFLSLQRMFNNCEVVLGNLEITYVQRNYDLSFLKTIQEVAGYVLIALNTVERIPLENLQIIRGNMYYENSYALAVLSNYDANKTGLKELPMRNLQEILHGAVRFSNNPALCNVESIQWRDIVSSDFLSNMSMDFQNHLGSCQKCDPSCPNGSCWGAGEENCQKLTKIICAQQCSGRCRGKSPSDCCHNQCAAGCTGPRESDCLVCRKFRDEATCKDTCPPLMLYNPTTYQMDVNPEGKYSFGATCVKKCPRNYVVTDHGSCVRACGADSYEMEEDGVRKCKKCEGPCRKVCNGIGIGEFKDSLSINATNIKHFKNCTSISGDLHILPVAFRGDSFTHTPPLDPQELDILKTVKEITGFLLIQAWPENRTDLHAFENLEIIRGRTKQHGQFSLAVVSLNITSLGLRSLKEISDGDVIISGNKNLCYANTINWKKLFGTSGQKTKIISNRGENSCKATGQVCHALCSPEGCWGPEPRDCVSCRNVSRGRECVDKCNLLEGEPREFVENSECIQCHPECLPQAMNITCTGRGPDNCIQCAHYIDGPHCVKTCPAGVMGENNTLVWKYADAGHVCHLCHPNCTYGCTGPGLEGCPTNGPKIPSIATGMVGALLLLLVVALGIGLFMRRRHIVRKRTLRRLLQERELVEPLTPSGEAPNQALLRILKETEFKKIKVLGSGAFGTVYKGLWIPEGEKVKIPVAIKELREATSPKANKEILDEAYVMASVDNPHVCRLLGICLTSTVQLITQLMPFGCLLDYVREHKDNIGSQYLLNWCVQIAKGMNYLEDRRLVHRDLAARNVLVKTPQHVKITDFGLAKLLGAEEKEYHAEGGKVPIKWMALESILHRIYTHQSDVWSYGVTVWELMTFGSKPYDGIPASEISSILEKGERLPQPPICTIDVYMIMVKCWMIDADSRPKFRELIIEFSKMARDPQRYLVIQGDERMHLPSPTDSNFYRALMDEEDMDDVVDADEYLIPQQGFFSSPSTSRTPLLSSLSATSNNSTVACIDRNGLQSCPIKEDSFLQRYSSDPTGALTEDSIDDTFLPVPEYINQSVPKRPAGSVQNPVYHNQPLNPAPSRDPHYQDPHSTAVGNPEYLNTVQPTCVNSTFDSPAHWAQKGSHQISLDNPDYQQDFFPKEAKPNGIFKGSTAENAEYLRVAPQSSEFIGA
Sequence of Bmx (P51813 whole entry): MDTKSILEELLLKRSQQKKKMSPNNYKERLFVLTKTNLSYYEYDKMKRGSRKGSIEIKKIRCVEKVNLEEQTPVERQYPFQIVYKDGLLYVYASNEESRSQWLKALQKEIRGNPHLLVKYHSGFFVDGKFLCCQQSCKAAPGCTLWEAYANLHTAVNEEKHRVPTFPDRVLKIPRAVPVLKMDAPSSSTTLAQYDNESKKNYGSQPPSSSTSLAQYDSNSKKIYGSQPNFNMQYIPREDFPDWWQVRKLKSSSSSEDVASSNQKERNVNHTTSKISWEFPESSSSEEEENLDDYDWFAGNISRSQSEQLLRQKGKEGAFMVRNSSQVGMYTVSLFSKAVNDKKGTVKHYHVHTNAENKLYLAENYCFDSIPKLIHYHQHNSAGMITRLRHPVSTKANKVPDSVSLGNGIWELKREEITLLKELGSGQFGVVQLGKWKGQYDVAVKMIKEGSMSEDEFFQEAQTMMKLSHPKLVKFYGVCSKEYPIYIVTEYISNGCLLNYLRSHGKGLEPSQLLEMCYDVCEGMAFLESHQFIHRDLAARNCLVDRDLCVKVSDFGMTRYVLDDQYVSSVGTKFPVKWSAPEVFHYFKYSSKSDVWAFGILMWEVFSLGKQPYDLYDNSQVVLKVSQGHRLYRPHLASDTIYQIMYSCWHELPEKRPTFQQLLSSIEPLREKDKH
Sequence of ErbB2 (P04626 23-1255): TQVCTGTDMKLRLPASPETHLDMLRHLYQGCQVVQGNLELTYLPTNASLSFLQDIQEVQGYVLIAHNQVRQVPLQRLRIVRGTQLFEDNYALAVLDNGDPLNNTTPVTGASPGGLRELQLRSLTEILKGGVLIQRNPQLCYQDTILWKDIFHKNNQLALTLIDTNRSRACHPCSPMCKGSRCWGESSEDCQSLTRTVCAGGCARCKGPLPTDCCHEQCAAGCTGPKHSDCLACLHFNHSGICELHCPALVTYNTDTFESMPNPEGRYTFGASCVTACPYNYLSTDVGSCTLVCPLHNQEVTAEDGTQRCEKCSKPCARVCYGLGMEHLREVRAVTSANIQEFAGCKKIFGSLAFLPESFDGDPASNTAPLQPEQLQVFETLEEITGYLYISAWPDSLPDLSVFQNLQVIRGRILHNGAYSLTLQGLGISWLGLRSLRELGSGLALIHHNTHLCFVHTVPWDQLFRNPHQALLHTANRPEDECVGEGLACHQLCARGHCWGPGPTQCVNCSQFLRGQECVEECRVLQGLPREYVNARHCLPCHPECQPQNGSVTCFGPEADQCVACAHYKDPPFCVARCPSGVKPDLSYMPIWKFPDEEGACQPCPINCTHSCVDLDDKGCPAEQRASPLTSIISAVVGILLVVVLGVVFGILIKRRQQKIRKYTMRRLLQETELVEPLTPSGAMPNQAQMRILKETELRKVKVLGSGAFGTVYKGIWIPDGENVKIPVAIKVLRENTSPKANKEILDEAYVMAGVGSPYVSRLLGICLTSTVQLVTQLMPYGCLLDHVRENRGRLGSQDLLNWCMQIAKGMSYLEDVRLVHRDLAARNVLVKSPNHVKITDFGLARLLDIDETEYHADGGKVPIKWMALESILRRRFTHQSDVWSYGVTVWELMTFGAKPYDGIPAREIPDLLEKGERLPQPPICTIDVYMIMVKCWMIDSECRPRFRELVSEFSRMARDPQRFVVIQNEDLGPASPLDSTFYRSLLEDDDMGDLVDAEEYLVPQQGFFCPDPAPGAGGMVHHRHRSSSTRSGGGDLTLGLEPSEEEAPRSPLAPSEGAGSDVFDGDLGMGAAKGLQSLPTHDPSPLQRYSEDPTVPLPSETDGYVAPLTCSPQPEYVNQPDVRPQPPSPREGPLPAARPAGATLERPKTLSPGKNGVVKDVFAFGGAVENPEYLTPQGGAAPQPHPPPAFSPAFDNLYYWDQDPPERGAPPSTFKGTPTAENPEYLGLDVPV

`CC#CC(=O)N1CCC[C@H]1c1nc(-c2ccc(C(=O)Nc3cc(C(F)(F)F)ccn3)c(OC)c2)c2c(N)nccn12`: the IC50 against BTK is 2.5 nM; against EGFR WT it was greater than 1000 nM; against Txk, 16 nM; against ITK, greater than 1000 nM; against ErbB2, greater than 1000 nM; against ErbB4, 99 nM. The values for the IC50 against Blk, against Bmx and against Jak3 were 489 nM, 14 nM and greater than 1000 nM, respectively. Further, the EC50 in assay [1] was found to be 3.7 nM.
On to `CC#CC(=O)N(C)[C@@H](C)c1nc(-c2ccc(C(=O)Nc3ccccn3)cc2)c2c(N)nccn12`, for which the IC50 on BTK was 2.1 nM; against EGFR WT, 123 nM; at Txk it was 3.7 nM; against ITK it was greater than 1000 nM; at Bmx, 7.5 nM. In addition, the EC50 in assay [1] amounted to 1.9 nM.
For the compound `CC#CC(=O)N[C@@H](C)c1nc(-c2ccc(C(=O)Nc3ccc(C)cn3)c(OC)c2)c2c(N)nccn12`, the IC50 against BTK is 1.9 nM; at EGFR WT it was greater than 1000 nM; against Txk, 1.7 nM; against ITK it was greater than 1000 nM; against Bmx, 2.4 nM. This compound displayed an EC50 in assay [1] of 1.3 nM.

The values above are taken from patent US11110088B2, “Imidazopyrazine inhibitors of Bruton's tyrosine kinase” (Acerta Pharma B.V., priority 2015, dated 2021).
